Columns and labels:
AT2 receptor = AT2 receptor (Homo sapiens (Human), UniProt P50052); experiment: AT2 Receptor Binding; details: HEK293 AT2 receptor transient cell membranes, [125I]-CGP42112A
Method: 1. Trypsin-EDTA (for Preparation of 100 mL)
• Dissolve trypsin in 2% EDTA and PBS completely; sterilize the solution by passing through a […] membrane filter; store at 4° C.
2. DMEM Medium (for Preparation of 1 L) • The powder was dissolved into 950 mL of distilled water with gentle stirring until the solution becomes clear. • Add. NaHCO3 1.176 g for DMEM medium. • Adjust pH of medium to 0.2˜0.3 below final working pH using 1 M NaOH or 1 M • HCl. Add slowly with stirring. • Dilute to 1 liter with ddH2O. • Sterilize the medium immediately by filtration. • Store at 4° C.
3. TE Buffer • 20 mM Tris-HCl, pH 7.4, • 5 mM EDTA
4. Binding Assay Buffer • 50 mM Hepes, pH 7.4 • 5 mM MgCl2 • 1 mM CaCl2 • 0.2% BSA
5. Wash Buffer • 50 mM Hepes, pH 7.4 Procedures for HEK293AT2 Receptor Transient Cell Transfection • Cells were plated into 150 mm dish at 50% density for transient transfection. Cells were ready for transfection after overnight incubation (the confluence reaches around 80%). • 75 μL Lipofectamine™2000 diluted in 6.25 mL OptiMEM I Reduced Serum Medium, was mixed gently, and incubated at room temperature for 5 minutes. 50 μg expression plasmid DNA diluted in 6.25 mL OptiMEM I Reduced Serum Medium without serum was mixed gently. • After the 5 minute incubation, the diluted DNA was combined with the diluted Lipofectamine™2000 (total volume is 12.5 mL). The mixture was mixed gently and incubated for 30 minutes at room temperature to allow the DNA-Lipofectamine™2000 complexes to form. • The 12.5 mL DNA-Lipofectamine™2000 complexes were added into the 150 mm dish and mixed gently by rocking the dish back and forth. • The cells were incubated at 37° C. with 5% CO2 for 48 hours. Cells were collected and stored frozen at −80° C. Procedures for HEK293AT2 Receptor Cell Membrane Preparation • Frozen HEK293AT2 receptor (transient transfected) cells were homogenized in ice cold TE buffer for 10s. • The homogenate was centrifuged at 25,000 g for 30 minutes. • The pellet was resuspended in ice cold tissue buffer. • Protein concentrations were determined using Bradford assay method with BSA as standard. • The membrane protein was frozen under −80° C. Compound Preparation
Solutions of all compounds were prepared bymicroplate liquid handling equipment such as Janus or Precision 2000. Compounds, dissolved in DMSO were stored in a Freezer. Compounds were prepared from 30 mM in 100% DMSO.
Step 1: Dose Plate Preparation (96 Well Plate)
• Add the 3 μL [30 mM] compound stock to column 1 on the plate. • Add 15 μL of 100% DMSO to column 1. • Add 10.81 μL of 100% DMSO to column 2-12. • Transfer 5 μL from column 1 into column 2 (half log dilution). • Transfer 5 μL from column 2 into column 3 (half log dilution). • Transfer 5 μL from column 3 into column 4 (half log dilution). • Transfer 5 μL from column 4 into column 5 (half log dilution). • Transfer 5 μL from column 5 into column 6 (half log dilution). • Transfer 5 μL from column 6 into column 7 (half log dilution). • Transfer 5 μL from column 7 into column 8 (half log dilution). • Transfer 5 μL from column 8 into column 9 (half log dilution). • Transfer 5 μL from column 9 into column 10 (half log dilution) • Transfer 5 μL from column 10 into column 11 (half log dilution) • Transfer 5 μL from column 11 into column 12 (half log dilution).
All the compounds were diluted using Precision 2000 microplate liquid handling equipment. The top concentration of compound was 5 mM with 100% DMSO.
Step 2: Working Plate Preparation (96 Well Plate)
• Compounds were diluted 50-fold with buffer. • 49 μL buffer was added to the well of 96 well plate. • 1 μL compound solution from dose plate was transferred to the corresponding well of working plate. • The top concentration of compound was 100 μM with 2% DMSO. Step 3: Assay Plate Preparation (96 Well Plate)
15 μL of compound solution was transferred from each well of working plate to the well of assay plate by Janus.

AT1 receptor = AT1 receptor (Homo sapiens (Human), UniProt P30556); experiment: AT1 Receptor Binding; details: HEK293/AT1 receptor transient cell membranes, [125I]-Sar1-Ile8-Angiotensin II; top concentration tested 10 μM
Description: The same media, solutions, cell procedures and compound preparation was used as for Biological Example 1 but using HEK293/AT1 Receptor Transient Cells.

NG108-15 neurite cells = experiment: AT2 Receptor Neurite Outgrowth Assay; format: cell-based; details: NG108-15 cells, in the presence of angiotensin II 0.1 μM, compound 0.003-10 μM
Method: The general methodology of Wallinder (2008) and references cited therein was used to assess the effect of the compounds of the present invention on neurite outgrowth. The assay was adapted for high content screening.
EMA1087 is a known AT2 receptor agonist described as “compound 21” in Wan et al. 2004. PD-123,319 is a known, commercially available AT2 receptor antagonist. The results were analyzed by immunofluorescence quantitative analysis. Neurite outgrowth was quantified with neurite average length using Cellomics software. Results are expressed as the mean±SEM, each conducted in triplicate. Statistical significance, compared with Ang II control: *p<0.05, **p<0.01, and ***p<0.001. NS: no significant difference. ND: not determined. FIGS. 1 to 5 show neurite outgrowth was inhibited by the AT2 receptor antagonists, PD-126,055 and compounds 6, 15, 21 and 28.

Sequence of AT2 receptor (P50052 whole entry, species assumed): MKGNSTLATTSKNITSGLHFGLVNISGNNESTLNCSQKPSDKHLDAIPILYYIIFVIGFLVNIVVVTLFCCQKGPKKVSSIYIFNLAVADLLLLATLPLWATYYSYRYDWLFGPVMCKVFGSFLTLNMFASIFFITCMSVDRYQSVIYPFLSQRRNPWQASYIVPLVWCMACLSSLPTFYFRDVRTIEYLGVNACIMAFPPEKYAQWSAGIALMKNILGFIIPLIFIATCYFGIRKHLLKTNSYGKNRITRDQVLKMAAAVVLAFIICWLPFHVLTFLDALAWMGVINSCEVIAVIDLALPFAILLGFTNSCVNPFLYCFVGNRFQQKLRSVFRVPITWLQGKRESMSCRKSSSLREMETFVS
Sequence of AT1 receptor (P30556 whole entry, species assumed): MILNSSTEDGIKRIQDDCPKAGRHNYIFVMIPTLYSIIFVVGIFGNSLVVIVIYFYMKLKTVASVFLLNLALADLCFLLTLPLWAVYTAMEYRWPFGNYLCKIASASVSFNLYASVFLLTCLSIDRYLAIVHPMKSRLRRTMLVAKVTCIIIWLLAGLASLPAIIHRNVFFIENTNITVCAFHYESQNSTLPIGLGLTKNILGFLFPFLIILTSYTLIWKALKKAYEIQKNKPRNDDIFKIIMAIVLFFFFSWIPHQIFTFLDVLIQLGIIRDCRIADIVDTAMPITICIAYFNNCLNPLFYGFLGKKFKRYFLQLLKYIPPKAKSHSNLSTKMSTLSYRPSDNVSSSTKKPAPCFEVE

SMILES	IC50 (AT2 receptor) [nM]	IC50 (AT1 receptor) [nM]	Ki (AT1 receptor) [nM]	neurite outgrowth (neurite average length) (NG108-15 neurite cells)
CN(CCCc1ccccc1)[C@H]1C[C@@H](C(=O)O)N(C(=O)C(c2ccccc2)c2ccccc2)C1 [Compound 21, (2S,4S)-1-(2,2-diphenylacetyl)-4-(methyl(3-phenylpropyl)amino)pyrrolidine-2-carboxylic acid]	62.1	> 10000	> 10000	inhibited
COc1ccc2c(c1OCc1ccccc1)C[C@@H](C(=O)O)N(C(=O)C(c1ccccc1)c1ccccc1)C2 [PD-126,055, reference compound]		> 10000	> 10000	inhibited
O=C(O)[C@@H]1C[C@H](N2C(=O)COC[C@@H]2Cc2ccccc2)CN1C(=O)C(c1ccccc1)c1ccccc1 [Compound 102, (2S,4S)-4-((S)-3-benzyl-5-oxomorpholino)-1-(2,2-diphenylacetyl)pyrrolidine-2-carboxylic acid]	499			
O=C(O)[C@@H]1C=C(C#CCCc2ccccc2)CN1C(=O)C(c1ccccc1)c1ccccc1 [Compound 140, (S)-1-(2,2-diphenylacetyl)-4-(4-phenylbut-1-yn-1-yl)-2,5-dihydro-1H-pyrrole-2-carboxylic acid]	674			
O=C(O)[C@@H]1C[C@H](N2CCOC[C@@H]2Cc2ccccc2)CN1C(=O)C(c1ccccc1)c1ccccc1 [Compound 28, (2S,4S)-4-((S)-3-benzylmorpholino)-1-(2,2-diphenylacetyl)pyrrolidine-2-carboxylic acid]	86.9			inhibited
O=C(O)[C@@H]1C[C@H](N2CCC3(CCOC(=O)N3Cc3ccccc3)C2)CN1C(=O)C(c1ccccc1)c1ccccc1 (some centres unmarked) [Compound 115]	321			

Continued, in another order:

IC50 (AT2 receptor) [nM]	SMILES	IC50 (AT1 receptor) [nM]	Ki (AT1 receptor) [nM]	neurite outgrowth (neurite average length) (NG108-15 neurite cells)
114	O=C(O)[C@@H]1C[C@H](OCc2ccccc2)CN1C(=O)C(c1ccccc1)c1ccccc1 [Compound 2, (2S,4S)-4-(benzyloxy)-1-(2,2-diphenylacetyl)pyrrolidine-2-carboxylic acid]			
458	CN(C(=O)CCc1ccccc1)[C@H]1C[C@@H](C(=O)O)N(C(=O)C(c2ccccc2)c2ccccc2)C1 [Compound 97, (2S,4S)-1-(2,2-diphenylacetyl)-4-(N-methyl-3-phenylpropanamido)pyrrolidine-2-carboxylic acid]			
83.3	O=C(O)[C@@H]1C[C@H](N2CCCC2Cc2ccccc2)CN1C(=O)C(c1ccccc1)c1ccccc1 (single isomer, unassigned) [Compound 61-A, (3′S,5′S)-2-benzyl-V-(2,2-diphenylacetyl)-[1,3′-bipyrrolidine]-5′-carboxylic acid]			
2250	O=C(CCc1ccccc1)N[C@H]1C[C@@H](C(=O)O)N(C(=O)C(c2ccccc2)c2ccccc2)C1 [Compound 96, (2S,4S)-1-(2,2-diphenylacetyl)-4-(3-phenylpropanamido)-pyrrolidine-2-carboxylic acid]			
400	O=C(O)[C@@H]1C[C@H](n2nncc2Cc2ccccc2)CN1C(=O)C(c1ccccc1)c1ccccc1 [Compound 101, (2S,4S)-4-(5-benzyl-1H-1,2,3-triazol-1-yl)-1-(2,2-diphenylacetyl)pyrrolidine-2-carboxylic acid]			
386	O=C(O)[C@@H]1C[C@H](CCOCc2ccccc2)CN1C(=O)C(c1ccccc1)c1ccccc1 [Compound 55, (2S,4R)-4-(2-(benzyloxy)ethyl)-1-(2,2-diphenylacetyl)-pyrrolidine-2-carboxylic acid]			
426	O=C(O)[C@@H]1C[C@H](CCCCc2ccccc2)CN1C(=O)C(c1ccccc1)c1ccccc1 [Compound 106, (2S,4S)-1-(2,2-diphenylacetyl)-4-(4-phenylbutyl)-pyrrolidine-2-carboxylic acid]			
536	CS(=O)(=O)N(CCCc1ccccc1)[C@H]1C[C@@H](C(=O)O)N(C(=O)C(c2ccccc2)c2ccccc2)C1 [Compound 99, (2S,4S)-1-(2,2-diphenylacetyl)-4-(N-(3-phenylpropyl)-methylsulfonamido)pyrrolidine-2-carboxylic acid]			

From patent US9624243B2, “Heterocyclic compounds and methods of their use” (Novartis AG, priority 2012, dated 2017)
